The values below come from publication PMC9732439, “Biochemical and in silico inhibition of bovine and human carbonic anhydrase-II by 1H-1,2,3-triazole analogs” (Frontiers in Chemistry, 2022).

Broadly, the IC50 is the concentration that inhibits the measured activity by half. As a reminder, the Ki is the dissociation constant of the complex between target and ligand, obtained from inhibition or displacement.

For assay [1], the target named is T1, bCA-II (Bos taurus, UniProt P00921). In words: In vitro carbonic anhydrase inhibition assay (p-NPA, spectrophotometric), bCA-II. The settings on record: for IC50 / bCA-II IC50 ± S.E.M.: bovine CA-II, substrate p-NPA, 15 min at 25°C, triplicate; for IC50: read-out: bCA-II IC50 ± S.E.M. Format: biochemical, bovine. The method, then:
Total assay volume comprises 140 µl of HEPES-Tris buffer, 20 µl of bCA-II solution (0.1 mg/ml HEPES-Tris buffer), 20 µl of the test compound (prepared in DMSO), and 20 µl p-NPA (0.7 mM, methanol). First, the test compound and enzyme were incubated for 15 min at 25°C; after incubation, in quick sequence, substrate was added to each experiment in 96-well plates, which were placed in the ^xMARK microplate spectrophotometer (Bio-Rad, United States), and the absorbance was set to 400 nm with 1 min interval time. The activity of the controlled compound was taken as 100%.

The target in assay [2] is T2, hCA-II (Homo sapiens, UniProt P00918). The experiment in a line: In vitro carbonic anhydrase inhibition assay (p-NPA, spectrophotometric), hCA-II. Format: biochemical. Particulars: for IC50 / hCA-II IC50 ± S.E.M.: human CA-II, substrate p-NPA, triplicate; for IC50: read-out: hCA-II IC50 ± S.E.M.; for Selectivity for hCA-II: hCA-II versus bCA-II.
Assay [3] concerns the target T1, bCA-II. In words: Kinetics study against bCA-II. The assay is classed as biochemical, bovine. The settings on record: for Kmapp: Michaelis–Menten constant in the presence of inhibitor; for Vmaxapp: maximum velocity in the presence of inhibitor; for Ki: read-out: Ki ± SEM. As for the experimental part: (§1) Soon after the incubation, various concentrations of substrate were added to the reaction medium (01–0.8 mM). The enzyme activity was measured under steady-state conditions by observing changes in absorbance for 30 min at 400 nm on the microtiter plate reader (Bio-Rad X-Mark^Tm molecular spectrometer, United States). The results were analyzed and processed by Grafit 7 software (Erithacus Software Limited, United Kingdom). Different kinetic parameters of enzymes (e.g., Vmax, Km, Vmaxapp, and Kmapp) and values of correlation coefficients, intercepts, slopes, and their standard error mean were calculated by the linear regression graph by Grafit 7. Linear regression analysis was used to calculate the “best fit” line or curve through a dataset by minimizing the deviation of the data from the curve.

Assay [4] deals with T2, hCA-II. The experiment in a line: Kinetics study against hCA-II. Format: biochemical. The settings on record: for Kmapp: Michaelis–Menten constant in the presence of inhibitor; for Vmaxapp: maximum velocity in the presence of inhibitor; for Ki: read-out: Ki ± SEM. As for the experimental part: as §1

T1 sequence (P00921 whole entry): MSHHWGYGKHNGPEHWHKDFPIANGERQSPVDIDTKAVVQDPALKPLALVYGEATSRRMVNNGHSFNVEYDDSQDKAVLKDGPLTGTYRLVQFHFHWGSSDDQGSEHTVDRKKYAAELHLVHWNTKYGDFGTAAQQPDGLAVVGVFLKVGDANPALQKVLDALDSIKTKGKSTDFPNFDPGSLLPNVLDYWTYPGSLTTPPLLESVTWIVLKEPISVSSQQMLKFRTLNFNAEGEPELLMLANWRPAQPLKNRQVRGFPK

In the case of `COc1cc(-c2cc(C(F)(F)F)cc(C(F)(F)F)c2)ccc1O[C@H](C)Cn1cc(-c2ccc(F)cc2)nn1` [Compound 9m], the IC50 was determined as 41 ± 0.4 µM on bCA-II [1] and 27.4 ± 0.9 µM at hCA-II [2].
Take `COc1cc(-c2ccc(C(C)=O)cc2)ccc1O[C@H](C)Cn1cc(-c2ccc(F)cc2)nn1` [Compound 9r]: on bCA-II [1] (bCA-II versus hCA-II), the “Selectivity for bCA-II” value is “selective inhibitors of bCA-II”. Further, the IC50 on bCA-II [1] turned out to be 29 ± 1 µM. Further, at hCA-II [2], the “hCA-II IC50 ± S.E.M.” value is given as “Inactive”.
Turning to `COc1cc(-c2ccc(F)c(F)c2F)ccc1O[C@H](C)Cn1cc(-c2ccc(F)cc2)nn1` [Compound 9p], at bCA-II [1], the “bCA-II IC50 ± S.E.M.” value is given as “Inactive”. Besides, at hCA-II [2], the “Selectivity for hCA-II” value was “selective inhibitors of the hCA-II” and the half-inhibitory concentration (IC50) turned out to be 19.3 ± 0.2 µM.
With `COC(=O)c1cn(C[C@@H](C)Oc2ccc(Br)cc2OC)nn1` [Compound 7d], the half-inhibitory concentration (IC50) at bCA-II [1] stood at 12.3 ± 0.4 µM; on hCA-II [2], 25.1 ± 0.4 µM.
Turning to `COc1cc(-c2ccc3ccccc3c2)ccc1O[C@H](C)Cn1cc(-c2ccc(F)cc2)nn1` [Compound 9q], on bCA-II [1], the “bCA-II IC50 ± S.E.M.” value is reported as “Inactive”. Further, on hCA-II [2], the “hCA-II IC50 ± S.E.M.” value is “Inactive”.
Take `COc1cc(-c2ccc(C)cc2)ccc1O[C@H](C)Cn1cc(-c2ccc(C(F)(F)F)cc2)nn1` [Compound 9a]: the IC50 turned out to be 25.7 ± 0.2 µM at bCA-II [1] and 21 ± 1 µM on hCA-II [2].
As to `COc1ccc(-c2ccc(O[C@H](C)Cn3cc(-c4ccc(F)cc4)nn3)c(OC)c2)cc1` [Compound 9h], at bCA-II [1], the IC50 is 12.9 ± 1 µM. Moreover, on hCA-II [2], the “hCA-II IC50 ± S.E.M.” value was “Inactive”.
With `COc1cc(-c2ccc([N+](=O)[O-])cc2)ccc1O[C@H](C)Cn1cc(-c2ccc(F)cc2)nn1` [Compound 9i], on bCA-II [3], the Type of inhibition result is reported as “competitive inhibition”, the Kmapp was 5.6 mM, the Vmaxapp is given as 23.2 (µmol/min)^−1 and the inhibition constant (Ki) turned out to be 9.4 ± 0.3 µM. For the same molecule, at hCA-II [4], the Type of inhibition result is “competitive inhibition”, the Kmapp was determined as 3.9 mM, the Vmaxapp is 26.1 (µmol/min)^−1 and the Ki turned out to be 8.1 ± 0.04 µM. On bCA-II [1], the IC50 was determined as 11.1 ± 0.2 µM. Further, on hCA-II [2], the IC50 came out at 10.9 ± 1 µM.
With `COc1cc(-c2cc3ccccc3s2)ccc1O[C@H](C)Cn1cc(-c2ccc(F)cc2)nn1` [Compound 9s], the “bCA-II IC50 ± S.E.M.” value at bCA-II [1] was “Inactive”. The “hCA-II IC50 ± S.E.M.” value at hCA-II [2] is given as “Inactive”.
Consider `COc1cc(-c2ccc(F)cc2)ccc1O[C@H](C)Cn1cc(-c2ccc(C(F)(F)F)cc2)nn1` [Compound 9d], for which, at bCA-II [1], the IC50 was 28.8 ± 0.4 µM. Also, the “hCA-II IC50 ± S.E.M.” value on hCA-II [2] is “Inactive”.
In the same order, the values of `COc1cc(-c2ccc(C)cc2)ccc1O[C@H](C)Cn1cc(-c2ccc(F)cc2)nn1` [Compound 9g] are 16.4 ± 0.4 µM and “Inactive”.
Take `COc1ccc(-c2ccc(O[C@H](C)Cn3cc(-c4ccc(C(F)(F)F)cc4)nn3)c(OC)c2)cc1` [Compound 9b]: the IC50 was 39.1 ± 0.3 µM on bCA-II [1] and 22.4 ± 0.4 µM at hCA-II [2].
In the same order, the values of `COc1cc(Br)ccc1O[C@H](C)Cn1cc(-c2ccccc2)nn1` [Compound 7a] are 21.4 ± 0.1 µM and 35.3 ± 0.6 µM.
As for `COc1cc(-c2ccc(C=O)cc2)ccc1O[C@H](C)Cn1cc(-c2ccc(F)cc2)nn1` [Compound 9n], the results for the IC50 at bCA-II [1] and at hCA-II [2] were 22.4 ± 0.4 µM and 23 ± 0.3 µM, respectively.
For the molecule `COc1cc(-c2c(F)cccc2F)ccc1O[C@H](C)Cn1cc(-c2ccc(F)cc2)nn1` [Compound 9o], on bCA-II [3], the Type of inhibition entry is recorded as “competitive inhibition”, the Kmapp amounted to 4.9 mM, the Vmaxapp is reported as 24.6 (µmol/min)^−1 and the Ki was determined as 11.3 ± 0.17 µM. Moreover, at hCA-II [4], the Type of inhibition result is given as “competitive inhibition”, the Kmapp is 4.2 mM, the Vmaxapp is 25.3 (µmol/min)^−1 and the Ki was 6.5 ± 0.19 µM. Moreover, the IC50 at bCA-II [1] was 14.1 ± 0.2 µM. Also, on hCA-II [2], the 50% inhibitory concentration (IC50) amounted to 13.6 ± 1 µM.
As to `COc1cc(-c2ccc([N+](=O)[O-])cc2)ccc1O[C@H](C)Cn1cc(-c2ccc(C(F)(F)F)cc2)nn1` [Compound 9e], at bCA-II [1], the concentration for half-maximal inhibition (IC50) came to 17.8 ± 0.8 µM. The “hCA-II IC50 ± S.E.M.” value on hCA-II [2] is listed as “Inactive”.
Take `COc1cc(Br)ccc1O[C@H](C)Cn1cc(-c2ccc(C(F)(F)F)cc2)nn1` [Compound 7b]: the concentration for half-maximal inhibition (IC50) on bCA-II [1] was found to be 20.6 ± 0.3 µM; on hCA-II [2], 45.1 ± 0.5 µM.
In the case of `COc1cc(Br)ccc1O[C@H](C)Cn1cc(-c2ccc(F)cc2)nn1` [Compound 7c], the 50% inhibitory concentration (IC50) at bCA-II [1] stood at 20.4 ± 0.3 µM; on hCA-II [2] it was 22.8 ± 0.2 µM.
Take `COc1cc(-c2ccccc2C(F)(F)F)ccc1O[C@H](C)Cn1cc(-c2ccc(C(F)(F)F)cc2)nn1` [Compound 9c]: at bCA-II [1], the “bCA-II IC50 ± S.E.M.” value was “Inactive”. Moreover, at hCA-II [2], the “Selectivity for hCA-II” value is reported as “selective inhibitors of the hCA-II” and the half-inhibitory concentration (IC50) turned out to be 12.5 ± 0.6 µM.
On the same counts, the results for `COc1cc(-c2ccc(C#N)cc2)ccc1O[C@H](C)Cn1cc(-c2ccc(F)cc2)nn1` [Compound 9k] are “Inactive”, “selective inhibitors of the hCA-II” and 21.3 ± 0.8 µM.
Regarding `COc1cc(-c2ccc(F)cc2)ccc1O[C@H](C)Cn1cc(-c2ccc(F)cc2)nn1` [Compound 9l], the “bCA-II IC50 ± S.E.M.” value on bCA-II [1] is reported as “Inactive”. The “hCA-II IC50 ± S.E.M.” value on hCA-II [2] is on record as “Inactive”.
As for `COc1cc(-c2ccc(Cl)cc2)ccc1O[C@H](C)Cn1cc(-c2ccc(F)cc2)nn1` [Compound 9j], on bCA-II [1], the “bCA-II IC50 ± S.E.M.” value is “Inactive”. In addition, the IC50 on hCA-II [2] stood at 18.5 ± 0.4 µM.
Consider `COc1cc(-c2ccccc2)ccc1O[C@H](C)Cn1cc(-c2ccc(F)cc2)nn1` [Compound 9f], for which, on bCA-II [1], the IC50 was 88.4 ± 0.3 µM. For the same molecule, the “hCA-II IC50 ± S.E.M.” value on hCA-II [2] was “Inactive”.
